These results are taken from patent US20220041616A1, “SPIRO COMPOUND AND MEDICAL USES THEREOF” (The National Institutes of Pharmaceutical R&D Co., Ltd., priority 2018, published 2022).

The target of the assay is T1, ACC1 (Homo sapiens, UniProt Q13085).
T1 construct: purchased BPS bioscience
The assay can be described thus: In vitro inhibition of ACC1 activity, ADP-Glo Kinase Analysis. The settings on record: 1 nM ACC1, 10 μM acetyl-CoA, 20 μM ATP. In kind it is biochemical. The source says: ADP-Glo™ Kinase Analysis Kit (Promega) is used for the in vitro analysis of the inhibitory effect of the present compound on ACC1 or ACC2. ADP-Glo™ Kinase Analysis is a kinase detection analysis of luminescence method. ADP is produced in the process of catalyzing the substrate by ACC. ADP is converted into ATP which is then converted into light by Ultra-Glo™ luciferase. ADP is quantified by detecting the light signal, thus the enzyme activity can be measured by quantification of the ADP amount produced during the enzyme reaction. The analysis is carried out in two steps: in the first step, after the kinase reaction, a portion of ADP-Glo™ reagent equal in volume to the kinase reaction system is added to terminate the reaction and consume the remaining ATP; in the second step, a kinase detection reagent is added, which not only converts ADP into ATP, but also uses a coupled luciferase/luciferin reaction to detect newly synthesized ATP.
a. 10 mM compound stock solution (the present compound was dissolved in 100% DMSO to prepare the 10 mM stock solution) was diluted 50-fold to 200 μM with 100% DMSO, and then diluted in equal proportions (1:3) in a 96-well dilution plate (249944, Nunc). The gradient concentrations of the compound were 200 μM, 66.67 μM, 22.22 μM, 7.41 μM, 2.47 μM, 0.823 μM, 0.274 μM, 0.0914 μM, 0.0305 μM, 0.0102 μM, 0.00339 μM and 0.00113 μM.
b. 4.5 μL ACC1 working solution (BPS bioscience) (2.22 nM) was added to each well of a 384-well test plate (6007290, Perkin Elmer).
c. 0.5 μL of the serially diluted compound (prepared in step a) was added to each well of the 384-well test plate, which was centrifuged at 1000 rpm for 1 min and then incubated at room temperature for 15 min. The reaction system with compound GS-0976 at a final concentration of 0.1 μM was used as positive control; the reaction system with no compound but DMSO at a final concentration of 5% was used as negative control.
d. In the 384-well test plate (prepared in step c), 5 μL of the substrate working solution was added to each well to start the enzymatic reaction. The plate was centrifuged at 1000 rpm for 1 min and then incubated at room temperature for 30 min. The final concentration of each component in the ACC1 reaction system: 1 nM ACC1, 10 μM acetyl-CoA, 30 mM NaHCO3, and 20 μM ATP. The final concentration of each component in the ACC2 reaction system: 1.1 nM ACC2, 20 μM acetyl-CoA, 20 mM NaHCO3, and 15 μM ATP. Final concentrations of test compounds: 10 μM, 3.33 μM, 1.11 μM, 0.37 μM, 0.123 μM, 0.0411 μM, 0.0137 μM, 0.00457 μM, 0.00152 μM, 0.00051 μM, 0.00017 μM and 0.000056 μM. The final concentration of DMSO was 5% (v/v).
e. 10 μL of ADP-Glo reagent was added to each well of the 384-well test plate (prepared in step d), which was centrifuged at 1000 rpm for 1 min and then incubated at room temperature for 40 min.
f. 20 μL of kinase detection reagent was added to each well of the 384-well test plate (prepared in step e), which was centrifuged at 1000 rpm for 1 min and then incubated at room temperature for 40 min.
g. The chemiluminescence signal was detected with Perkin Elmer EnVision 2104.
ACC1 working solution and substrate working solution were both prepared with 1× kinase reaction buffer. The buffer was consisting of 50 mM HEPES buffer, 2 mM magnesium chloride, 0.01% BRIJ-35, 2 mM potassium citrate, 50 μg/mL BSA and 2 mM DTT.
The average value of the positive and negative control well and the standard deviation were calculated. The inhibition percentage was calculated according to the following formula: 100×[1−(compound−average value of positive control)/(average value of negative control-average value of positive control)].
IC50 of the compound was obtained using GraphPad Prism 6 software according to the following nonlinear fitting formula:
Y=Bottom+(Top−Bottom)/(1+10^((Log IC50−X)×Hillslope)), […]
(ADP-Glo turns the ADP formed in a reaction into a luminescent signal.)
As to “7′-(2-(2-methoxyphenyl)-2-((tetrahydro-2H-pyran-4-yl)oxy)ethyl)-3′-methyl-2′-(oxazol-2-yl)-4′,6′-dioxo-6′,7′-dihydro-4′H-spiro[cyclohexane-1,5′-thieno[2,3-b]pyridine]-3-carboxylic Acid [Compound 7a]”, the IC50 was greater than 500 nM. Consider “7′-(2-(2-methoxyphenyl)-2-((tetrahydro-2H-pyran-4-yl)oxy)ethyl)-3′-methyl-2′-(oxazol-2-yl)-4′,6′-dioxo-6′,7′-dihydro-4′H-spiro[cyclohexane-1,5′-thieno[2,3-b]pyridine]-3-carboxylic Acid [Compound 7b]”, for which the IC50 lay within 100 to 500 nM. `Cc1c(-c2ncco2)sc2c1C(=O)C1(CCC(C(=O)O)C1)C(=O)N2CC(OC1CCOCC1)c1ccccc1` (mixture of isomers) [Compound 3, 3′-methyl-2′-(oxazol-2-yl)-4′,6′-dioxo-7′-(2-phenyl-2-((tetrahydro-2H-pyran-4-yl)oxy)ethyl)-6′,7′-dihydro-4′H-spiro[cyclopentane-1,5′-thieno[2,3-b]pyridine]-3-carboxylic Acid] returned a 50% inhibitory concentration (IC50) of 100 to 500 nM. To `Cc1c(-c2ncco2)sc2c1C(=O)C1(CCC(C)(C(=O)O)C1)C(=O)N2CC(OC1CCOCC1)c1ccccc1` (mixture of isomers) [Compound 4, 3,3′-dimethyl-2′-(oxazol-2-yl)-4′,6′-dioxo-7′-(2-phenyl-2-((tetrahydro-2H-pyran-4-yl)oxy)ethyl)-6′,7′-dihydro-4′H-spiro[cyclopentane-1,5′-thieno[2,3-b]pyridine]-3-carboxylic Acid] belongs 100 to 500 nM. As for `COc1ccccc1C(CN1C(=O)C2(CCC(C(=O)O)C2)C(=O)c2c1sc(-c1ncco1)c2C)OC1CCOCC1` (mixture of isomers) [Compound 5, 7′-(2-(2-methoxyphenyl)-2-((tetrahydro-2H-pyran-4-yl)oxy)ethyl)-3′-methyl-2′-(oxazol-2-yl)-4′,6′-dioxo-6′,7′-dihydro-4′H-spiro[cyclopentane-1,5′-thieno[2,3-b]pyridine]-3-carboxylic Acid], the concentration for half-maximal inhibition (IC50) was less than 10 nM. To `COc1ccccc1C(CN1C(=O)C2(CCC(C(=O)O)C2)C(=O)c2c1sc(-c1ncco1)c2C)OC1CCOCC1` (mixture of isomers) [Compound 5e, 7′-(2-(2-methoxyphenyl)-2-((tetrahydro-2H-pyran-4-yl)oxy)ethyl)-3′-methyl-2′-(oxazol-2-yl)-4′,6′-dioxo-6′,7′-dihydro-4′H-spiro[cyclopentane-1,5′-thieno[2,3-b]pyridine]-3-carboxylic Acid] belongs 10 to 100 nM; to `Cc1c(-c2ncco2)sc2c1C(=O)C1(CCC(C(=O)O)CC1)C(=O)N2CC(OC1CCOCC1)c1ccccc1` (mixture of isomers) [Compound 6, 3′-methyl-2′-(oxazol-2-yl)-4′,6′-dioxo-7′-(2-phenyl-2-((tetrahydro-2H-pyran-4-yl)oxy)ethyl)-6′,7′-dihydro-4′H-spiro[cyclohexane-1,5′-thieno[2,3-b]pyridine]-4-carboxylic acid], 100 to 500 nM. Consider `Cc1c(-c2ncco2)sc2c1C(=O)C1(CCC1)C(=O)N2CC(OC1CCOCC1)c1ccccc1` (racemic) [Compound 1, 3′-methyl-2′-(oxazol-2-yl)-7′-(2-phenyl-2-((tetrahydro-2H-pyran-4-yl)oxy)ethyl)-4′H-spiro[cyclobutane-1,5′-thieno[2,3-b]pyridine]-4′,6′(7′H)-dione], for which the IC50 is greater than 500 nM.

`COc1ccccc1C(CN1C(=O)C2(CCC(C(=O)O)C2)C(=O)c2c1sc(-c1ncco1)c2C)OC1CCOCC1` (single isomer, unassigned) [Compound 5a, 7′-(2-(2-methoxyphenyl)-2-((tetrahydro-2H-pyran-4-yl)oxy)ethyl)-3′-methyl-2′-(oxazol-2-yl)-4′,6′-dioxo-6′,7′-dihydro-4′H-spiro[cyclopentane-1,5′-thieno[2,3-b]pyridine]-3-carboxylic Acid] had an IC50 of 10 to 100 nM.

`COc1ccccc1C(CN1C(=O)C2(CCC(C(=O)O)C2)C(=O)c2c1sc(-c1ncco1)c2C)OC1CCOCC1` (single isomer, unassigned) [Compound 5c, 7′-(2-(2-methoxyphenyl)-2-((tetrahydro-2H-pyran-4-yl)oxy)ethyl)-3′-methyl-2′-(oxazol-2-yl)-4′,6′-dioxo-6′,7′-dihydro-4′H-spiro[cyclopentane-1,5′-thieno[2,3-b]pyridine]-3-carboxylic Acid] displayed an IC50 of less than 10 nM.

Compound `COc1ccccc1C(CN1C(=O)C2(CCC(C(=O)O)C2)C(=O)c2c1sc(-c1ncco1)c2C)OC1CCOCC1` (single isomer, unassigned) [Compound 5d, 7′-(2-(2-methoxyphenyl)-2-((tetrahydro-2H-pyran-4-yl)oxy)ethyl)-3′-methyl-2′-(oxazol-2-yl)-4′,6′-dioxo-6′,7′-dihydro-4′H-spiro[cyclopentane-1,5′-thieno[2,3-b]pyridine]-3-carboxylic Acid] gave an IC50 of less than 10 nM.

As to `COc1ccccc1C(CN1C(=O)C2(CC(C(=O)O)C2)C(=O)c2c1sc(-c1ncco1)c2C)OC1CCOCC1` (single isomer, unassigned) [Compound 8a, 7′-(2-(2-methoxyphenyl)-2-((tetrahydro-2H-pyran-4-yl)oxy)ethyl)-3′-methyl-2′-(oxazol-2-yl)-4′,6′-dioxo-6′,7′-dihydro-4′H-spiro[cyclobutane-1,5′-thieno[2,3-b]pyridine]-3-carboxylic Acid], the IC50 was 10 to 100 nM. The compound `COc1ccccc1C(CN1C(=O)C2(CC(C(=O)O)C2)C(=O)c2c1sc(-c1ncco1)c2C)OC1CCOCC1` (single isomer, unassigned) [Compound 8b, 7′-(2-(2-methoxyphenyl)-2-((tetrahydro-2H-pyran-4-yl)oxy)ethyl)-3′-methyl-2′-(oxazol-2-yl)-4′,6′-dioxo-6′,7′-dihydro-4′H-spiro[cyclobutane-1,5′-thieno[2,3-b]pyridine]-3-carboxylic Acid] returned an IC50 of 100 to 500 nM. `Cc1c(-c2ncco2)sc2c1C(=O)C1(CCCC1)C(=O)N2CC(OC1CCOCC1)c1ccccc1` (centres unmarked) [Compound 2, 3′-methyl-2′-(oxazol-2-yl)-7′-(2-phenyl-2-((tetrahydro-2H-pyran-4-yl)oxy)ethyl)-4′H-spiro[cyclopentane-1,5′-thieno[2,3-b]pyridine]-4′,6′(7′H)-dione] registered an IC50 greater than 500 nM. To `CNC(=O)[C@H]1C[C@@]2(C1)C(=O)c1c(sc(-c3ncco3)c1C)N(C[C@H](OC1CCOCC1)c1ccccc1OC)C2=O` [Compound 9] belongs less than 10 nM; to `COc1ccccc1[C@H](CN1c2sc(-c3ncco3)c(C)c2C(=O)[C@]2(C[C@H](C(=O)NCC(=O)O)C2)C1=O)OC1CCOCC1` [Compound 10, ((1s,3S)-7′-((R)-2-(2-methoxyphenyl)-2-((tetrahydro-2H-pyran-4-yl)oxy)ethyl)-3′-methyl-2′-(oxazol-2-yl)-4′,6′-dioxo-6′,7′-dihydro-4′H-spiro[cyclobutane-1,5′-thieno[2,3-b]pyridine]-3-carbonyl)glycine], less than 10 nM; to `COC(=O)CNC(=O)[C@H]1C[C@@]2(C1)C(=O)c1c(sc(-c3ncco3)c1C)N(C[C@H](OC1CCOCC1)c1ccccc1OC)C2=O` [Compound 10-1, methyl ((1s,3S)-7′-((R)-2-(2-methoxyphenyl)-2-((tetrahydro-2H-pyran-4-yl)oxy)ethyl)-3′-methyl-2′-(oxazol-2-yl)-4′,6′-dioxo-6′,7′-dihydro-4′H-spiro[cyclobutane-1,5′-thieno[2,3-b]pyridine]-3-carbonyl)glycinate], less than 10 nM.

One may read the IC50 as the concentration needed to halve the response being measured.
